The record followed here is patent US20090088439A1, “Diazinane Compounds” (priority 2007, published 2009).

Molecules are shown by their SMILES.

Assay [1] addresses T1, GABAB(1A,2) receptor heterodimer (Homo sapiens, UniProt O75899+Q9UBS5).
T1 construct: expressed in transfected cells; membrane preparation
The assay can be described thus: GTPγS35 radioligand filtration-binding assay for determination of PAM potency. To be noted: membranes of CHO-K1 cells expressing GABABR1a/GABABR2; concentration required to reduce GABA's EC50 by 50%; PAM at 10, 1, 0.1 and 0.01 μM; read-out: Mean (EC50 derived) PAM EC50. Type of assay: biochemical. The text has this:
The effect of GABA in an automated GTPγS^35 radioligand filtration-binding assay in CHO cells expressing the GABAB(1A,2) receptor heterodimer was studied in the presence or absence of the positive allosteric modulator test compounds. […]
(§1) The GABAB receptor is a G-protein coupled receptor. Binding of a ligand activates the receptor leading to recruitment of G-protein and a substitution of the G-protein bound GDP to GTP. The G-protein becomes active. The G-protein is inactivated by hydrolysis of GTP to GDP. G-proteins are membrane bound and therefore present in membrane preparations.
(§2) In the GTPγS^35 assay, GTP is not present but instead GTPγS^35 where one of the phosphate groups are substituted to a sulphur group which cannot be hydrolysed. Upon activation of the receptor, radiolabelled GTPγS^35 replaces the GDP. The complex cannot be inactivated and the radiolabelled complex is accumulating. At the end of the assay, the reaction mixture is filtered through a membrane-binding filter. Excess GTPγS^35 is removed by washing and the membrane bound S^35, which correlates to the degree of receptor activation, is measured with a β-Liquid Scintillation Counter.
GABABR1a and GABABR2 were cloned from human brain cDNA and subcloned into pCI-Neo (Promega) and pALTER-1 (Promega), respectively.
In order to optimise the Kozak consensus sequence of GABABR2, in situ mutagenesis was performed using the Altered Sites Mutagenesis kit according to manufacturer's instruction (Promega) with the following primer,
5′-[…]-3′. The optimised GABABR2 was then restricted from pALTER-1 with Xho I+Kpn I and subcloned into the mammalian expression vector pcDNA3.1(−)/Zeo (Invitrogen) to produce the final construct, pcDNA3.1(−)/Zeo-GABABR2.
For generation of stable cell lines, CHO-K1 cells were grown in Nut mix F-12 (Ham) media supplemented with 10% FBS, 100 U/ml Penicillin and 100 μg/ml Streptomycin at 37° C. in a humidified CO2-incubator. The cells were detached with 1 mM EDTA in PBS and 1 million cells were seeded in 100 mm petri dishes. After 24 hours the culture media was replaced with OptiMEM and incubated for 1 hour in a CO2-incubator.
For generation of a cell line expressing the GABABR1a/GABABR2 heterodimer, GABABR1a plasmid DNA (4 μg) GABABR2 plasmid DNA (4 μg) and lipofectamine (24 μl) were mixed in 5 ml OptiMEM and incubated for 45 minutes at room temperature. The cells were exposed to the transfection medium for 5 hours, which then was replaced with culture medium. The cells were cultured for an additional 10 days before selection agents (300 μg/ml hygromycin and 400 μg/ml geneticin) were added. Twenty-four days after transfection, single cell sorting into 96-well plates by flow cytometry was performed using a FACS Vantage SE (Becton Dickinson, Palo Alto, Calif.). After expansion, the GABAB receptor functional response was tested by measuring the GABAB receptor dependent release of intracellular calcium in a fluorescence imaging plate reader (FLIPR). The clone with the highest functional response was collected, expanded and then subcloned by single cell sorting. The clonal cell line with the highest peak response in the FLIPR was used in the present study.
GTPγS^35 radioligand filtration-binding assays were performed using an automated workstation at 30° C. for 1 hour in assay buffer (50 mM HEPES, 40 mM NaCl, 1 mM MgCl2×6H2O, 30 μg/mL Saponin, pH 7.4 at RT) containing 0.025 μg/μL of membrane protein (prepared from the cell line described above), 10 μM GDP and 0.55 nCi/μL GTPγS^35 in a final volume of 60 μL. The reaction was started by the addition of serially diluted GABA (final start concentration 1 mM dilution factor 3) in the presence or absence of four concentrations (final conc 10, 1, 0.1 and 0.01 μM) of PAM. The reaction was terminated and membranes collected by addition of ice-cold wash buffer (50 mM Tris-HCl, 5 mM MgCl2×6H2O, 50 mM NaCl, pH 7.4 at 4° C.) followed by rapid filtration under vacuum through a MultiScreen HTS 384 FB filter plate. […]

For assay [2], the target named is T2, GABABR1a/GABABR2 heterodimer (Homo sapiens, UniProt O75899+Q9UBS5).
T2 construct: expressed in transfected cells; membrane preparation
T2 sequence (Q9UBS5 15-961 limits assumed): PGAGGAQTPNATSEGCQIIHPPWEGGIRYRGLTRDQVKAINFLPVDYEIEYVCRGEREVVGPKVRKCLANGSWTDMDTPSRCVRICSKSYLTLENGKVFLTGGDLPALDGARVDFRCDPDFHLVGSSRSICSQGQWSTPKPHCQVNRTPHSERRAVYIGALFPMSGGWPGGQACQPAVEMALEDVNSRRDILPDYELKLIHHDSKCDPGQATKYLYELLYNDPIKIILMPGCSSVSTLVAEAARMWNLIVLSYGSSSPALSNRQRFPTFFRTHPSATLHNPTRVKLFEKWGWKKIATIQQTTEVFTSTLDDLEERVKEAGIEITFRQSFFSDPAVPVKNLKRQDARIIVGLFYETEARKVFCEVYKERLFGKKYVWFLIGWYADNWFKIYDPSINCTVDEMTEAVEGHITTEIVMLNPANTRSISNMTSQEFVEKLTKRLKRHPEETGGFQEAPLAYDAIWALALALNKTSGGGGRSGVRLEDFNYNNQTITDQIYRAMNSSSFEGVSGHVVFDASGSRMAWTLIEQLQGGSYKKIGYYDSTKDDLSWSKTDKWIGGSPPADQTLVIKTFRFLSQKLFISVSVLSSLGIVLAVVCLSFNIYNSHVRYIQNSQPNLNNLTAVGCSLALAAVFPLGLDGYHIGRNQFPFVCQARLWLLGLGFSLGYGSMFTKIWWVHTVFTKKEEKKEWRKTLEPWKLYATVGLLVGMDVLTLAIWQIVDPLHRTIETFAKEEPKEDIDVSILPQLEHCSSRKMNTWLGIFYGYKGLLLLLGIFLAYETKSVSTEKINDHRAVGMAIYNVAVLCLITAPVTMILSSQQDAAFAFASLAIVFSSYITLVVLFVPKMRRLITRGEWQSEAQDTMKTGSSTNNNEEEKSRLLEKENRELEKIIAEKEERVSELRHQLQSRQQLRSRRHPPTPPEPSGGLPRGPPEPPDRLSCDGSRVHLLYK
T2 sequence (O75899 42-941): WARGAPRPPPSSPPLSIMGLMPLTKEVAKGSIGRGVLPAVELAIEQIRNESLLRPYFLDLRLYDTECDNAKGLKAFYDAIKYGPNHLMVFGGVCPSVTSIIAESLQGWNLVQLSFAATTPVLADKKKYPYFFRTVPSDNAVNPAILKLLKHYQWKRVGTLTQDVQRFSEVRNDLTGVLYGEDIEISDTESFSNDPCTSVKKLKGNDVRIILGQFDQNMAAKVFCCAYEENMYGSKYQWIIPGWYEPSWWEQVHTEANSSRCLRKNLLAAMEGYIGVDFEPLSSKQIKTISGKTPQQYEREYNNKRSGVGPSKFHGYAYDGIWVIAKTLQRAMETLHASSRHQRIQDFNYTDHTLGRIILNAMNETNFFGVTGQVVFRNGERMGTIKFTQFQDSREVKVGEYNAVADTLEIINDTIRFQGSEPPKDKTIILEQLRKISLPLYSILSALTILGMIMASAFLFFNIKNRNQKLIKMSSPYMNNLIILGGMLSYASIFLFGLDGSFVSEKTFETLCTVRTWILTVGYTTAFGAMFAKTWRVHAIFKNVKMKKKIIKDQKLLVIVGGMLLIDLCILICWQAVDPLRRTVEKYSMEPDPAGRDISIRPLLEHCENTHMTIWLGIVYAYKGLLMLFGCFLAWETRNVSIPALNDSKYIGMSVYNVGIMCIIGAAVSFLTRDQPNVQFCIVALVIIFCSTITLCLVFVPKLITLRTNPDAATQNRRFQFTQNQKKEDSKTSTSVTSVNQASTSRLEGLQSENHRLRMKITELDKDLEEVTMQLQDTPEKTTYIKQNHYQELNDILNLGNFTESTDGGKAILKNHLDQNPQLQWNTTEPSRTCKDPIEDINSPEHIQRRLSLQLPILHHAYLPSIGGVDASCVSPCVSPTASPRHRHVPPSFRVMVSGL
Briefly: GTPγS35 radioligand filtration-binding assay for determination of agonist potency. Type of assay: biochemical. To be noted: membranes of CHO K1 Flp-In cells expressing GABABR1a/GABABR2; compound alone. Here is the method:
The potency and efficacy of the compounds acting as agonists at the GABAB receptor was also determined in a automated GTPγS^35 radioligand filtration-binding assay.
as §1, §2
The human GABABR1a was subcloned into pIRESneo3 (Clontech) using GABABR1a construct as a template (refseqN NM001470). GABABR2 was subcloned into pCDNA5/FRT (Invitrogen) using GABABR2 construct as a template (refseqN NM005458). The Kozak sequence GCCACC was introduced before the start codon in both constructs.
For generation of stable cell lines, CHO K1 Flp-In cells (Invitrogen) were grown in DMEM/F 12 1:1 media supplemented with 10% FBS at 37° C. in a humidified CO2-incubator. The cells were detached with Accutase and 1.5 million cells were seeded into T75 flasks. After 24 h, transfection of the cells were performed with the GABABR2 construct. For generation of cell lines expressing GABABR2, GABABR2 plasmid (1 μg) and pOG44 from Invitrogen (9 μg) were mixed with 30 μl Lipofectamine 2000 in 600 μl OptiMEM for 20 minutes. The cells were exposed to transfection medium for 5 hours and was then replaced with culture medium. After 2 days 0.5 mg/ml Hygromycin were added to culture medium. The cells were cultured for an additional 10 days to establish a stable cell mix expressing GABABR2. For generation of a cell line expressing the GABABR1a/GABABR2 heterodimer, GABABR1a plasmid DNA (8 μg) and Lipofectamine (30 μl) were mixed in 600 μl OptiMEM and incubated for 20 minutes before added to CHO-Flp-In cells expressing GABABR2. After 2 days additional selection agent was added (0.8 mg/ml Geneticin). The cells were cultured for another 10 days to generate a stable mixed population expressing the GABABR1a/GABABR2 heterodimer. The cell line was analyzed by GTPγS^35 assay with GABA as agonist.
GTPγS^35 radioligand filtration-binding assays were performed using an automated workstation at 30° C. for 1 hour in assay buffer (50 mM HEPES, 40 mM NaCl, 1 mM MgCl2×6H2O, 30 μg/mL Saponin, pH 7.4 at RT) containing 0.025 μg/μL of membrane protein (prepared from the cell line described above), 10 μM GDP and 0.55 nCi/μL GTPγS^35 in a final volume of 60 μL. The reaction was started by the addition of compounds (GABA was always included as a positive control), start concentration 100 μM dilution factor 3. The reaction was terminated and membranes collected by addition of ice-cold wash buffer (50 mM Tris-HCl, 5 mM MgCl2×6H2O, 50 mM NaCl, pH 7.4 at 4° C.) followed by rapid filtration under vacuum through a MultiScreen HTS 384 FB filter plate. Repeated washing of the filters with ice-cold wash buffer washed the unbound radioligand away. The filter plates were dried for 1½-2 hours at 50° C., then 8 μL scintillation liquid was added per well followed by incubation at RT for at least 20 minutes before bound radioactivity was determined using a β-Liquid Scintillation Counter (1450 Microbeta Trilux, Wallac, Finland)
100% activation (max) is calculated as the mean value for wells containing 1 mM GABA. […]

A word on the EC50: it is the concentration needed to bring the measured effect to its halfway point.

T1 sequence (Q9UBS5 15-961 limits assumed): as the sequence (Q9UBS5 15-961 limits assumed) above
T1 sequence (O75899 42-941): as the sequence (O75899 42-941) above

Turning to `CCCn1c(=O)n(Cc2ccc(Cl)cc2)c(=O)c2nc(C)c(C)nc21` [Example 15, 3-(4-chlorobenzyl)-6,7-dimethyl-1-propylpteridine-2,4(1H,3H)-dione], the EC50 was 1300 nM in assay [1] and 36800 nM in assay [2]. Take `CC(C)(C)CCn1c(=O)n(Cc2ccc(Cl)cc2)c(=O)c2nccnc21` [Example 6, 3-(4-chlorobenzyl)-1-(3,3-dimethylbutyl)pteridine-2,4(1H,3H)-dione]: the EC50 amounted to 800 nM in assay [1] and 4700 nM in assay [2]. In turn, `N#Cc1cccc(Cn2c(=O)n(Cc3ccc(Cl)cc3)c(=O)c3nc4c(nc32)CCCC4)c1` [Example 16, 3-{[3-(4-chlorobenzyl)-2,4-dioxo-3,4,6,7,8,9-hexahydrobenzo[g]pteridin-1(2H)-yl]methyl}benzonitrile] had an EC50 in assay [2] of 1000 nM. As to `CCCn1c(=O)n(Cc2ccc(Cl)cc2)c(=O)c2nc3c(nc21)CCCC3` [Example 20, 3-(4-chlorobenzyl)-1-propyl-6,7,8,9-tetrahydrobenzo[g]pteridine-2,4(1H,3H)-dione], the EC50 in assay [1] and in assay [2] was 800 nM throughout.
